Test results as given in PubChem BioAssay (NCI).
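Assay format: 96-well plates, 48-hour exposure. At the GI50, growth is halved. TGI: concentration producing complete growth inhibition.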

Assays:
Experiment in all cases: DTP human tumour cell line panel, 48 h
UO-31 renal = test system: UO-31 renal
NCI-H23 lung = test system: NCI-H23 lung
HCC-2998 colon = test system: HCC-2998 colon
MDA-MB-231 breast = test system: MDA-MB-231 breast
SK-MEL-28 melanoma = test system: SK-MEL-28 melanoma
UACC-257 melanoma = test system: UACC-257 melanoma
SR leukemia = test system: SR leukemia
NCI/ADR-RES ovarian = test system: NCI/ADR-RES ovarian
OVCAR-4 ovarian = test system: OVCAR-4 ovarian
ACHN renal = test system: ACHN renal
OVCAR-8 ovarian = test system: OVCAR-8 ovarian
IGROV1 ovarian = test system: IGROV1 ovarian
HOP-92 NSCLC = test system: HOP-92 NSCLC
CAKI-1 renal = test system: CAKI-1 renal
RXF 393 renal = test system: RXF 393 renal
CCRF-CEM leukemia = test system: CCRF-CEM leukemia
SK-OV-3 ovarian = test system: SK-OV-3 ovarian
OVCAR-5 ovarian = test system: OVCAR-5 ovarian
DU-145 prostate = test system: DU-145 prostate
MDA-MB-435 = test system: MDA-MB-435
PC-3 prostate = test system: PC-3 prostate
COLO 205 colon = test system: COLO 205 colon
M14 melanoma = test system: M14 melanoma
T-47D breast = test system: T-47D breast
HCT-15 colon = test system: HCT-15 colon
HS 578T breast = test system: HS 578T breast
SF-268 CNS = test system: SF-268 CNS
SF-539 CNS = test system: SF-539 CNS
SK-MEL-5 melanoma = test system: SK-MEL-5 melanoma
EKVX NSCLC = test system: EKVX NSCLC
786-0 renal = test system: 786-0 renal
U251 CNS = test system: U251 CNS
HCT-116 colon = test system: HCT-116 colon
MOLT-4 leukemia = test system: MOLT-4 leukemia
A498 renal = test system: A498 renal
UACC-62 melanoma = test system: UACC-62 melanoma
SNB-75 CNS = test system: SNB-75 CNS
NCI-H226 lung = test system: NCI-H226 lung
SNB-19 CNS = test system: SNB-19 CNS
LOX IMVI melanoma = test system: LOX IMVI melanoma
HL-60(TB) leukemia = test system: HL-60(TB) leukemia
KM12 colon = test system: KM12 colon
SW-620 colon = test system: SW-620 colon
RPMI-8226 leukemia = test system: RPMI-8226 leukemia
A549 NSCLC = test system: A549 NSCLC
K-562 leukemia = test system: K-562 leukemia
SF-295 CNS = test system: SF-295 CNS
MCF7 breast = test system: MCF7 breast
NCI-H460 lung = test system: NCI-H460 lung
MALME-3M melanoma = test system: MALME-3M melanoma
OVCAR-3 ovarian = test system: OVCAR-3 ovarian
HOP-62 NSCLC = test system: HOP-62 NSCLC

`Cc1ccc(NC(=O)NCCCOc2ccc(N3C(N)=NC(N)=NC3(C)C)cc2Cl)cc1S(=O)(=O)F` was tested, and the GI50 (UO-31 renal) was greater than 100 µM, the TGI (UO-31 renal) was greater than 100 µM and the GI50 (NCI-H23 lung) was 5 µM. The TGI (NCI-H23 lung) was greater than 100 µM, the GI50 (HCC-2998 colon) was 21.5 µM and the TGI (HCC-2998 colon) was greater than 100 µM. For the same compound, the GI50 (MDA-MB-231 breast) was 11.4 µM, the TGI (MDA-MB-231 breast) was greater than 100 µM and the GI50 (SK-MEL-28 melanoma) was 11.6 µM. It also gave a TGI (SK-MEL-28 melanoma) greater than 100 µM, a GI50 (UACC-257 melanoma) of 10.9 µM and a TGI (UACC-257 melanoma) greater than 100 µM. For the same compound, the GI50 (SR leukemia) was 0.724 µM, the TGI (SR leukemia) was greater than 100 µM and the GI50 (NCI/ADR-RES ovarian) was greater than 100 µM. The TGI (NCI/ADR-RES ovarian) was greater than 100 µM, the GI50 (OVCAR-4 ovarian) was 15.1 µM and the TGI (OVCAR-4 ovarian) was greater than 100 µM. The GI50 (ACHN renal) was 49.3 µM, the TGI (ACHN renal) was greater than 100 µM and the GI50 (OVCAR-8 ovarian) was 7.85 µM. For the same compound, the TGI (OVCAR-8 ovarian) was greater than 100 µM, the GI50 (IGROV1 ovarian) was 0.525 µM and the TGI (IGROV1 ovarian) was greater than 100 µM. For the same compound, the GI50 (HOP-92 NSCLC) was 18.9 µM, the TGI (HOP-92 NSCLC) was 75.1 µM and the GI50 (CAKI-1 renal) was 70 µM. For the same compound, the TGI (CAKI-1 renal) was greater than 100 µM, the GI50 (RXF 393 renal) was 98.3 µM and the TGI (RXF 393 renal) was greater than 100 µM. The GI50 (CCRF-CEM leukemia) was 9.69 µM, the TGI (CCRF-CEM leukemia) was greater than 100 µM and the GI50 (SK-OV-3 ovarian) was 43.6 µM. For the same compound, the TGI (SK-OV-3 ovarian) was greater than 100 µM, the GI50 (OVCAR-5 ovarian) was 6.44 µM and the TGI (OVCAR-5 ovarian) was greater than 100 µM. For the same compound, the GI50 (DU-145 prostate) was 6.04 µM, the TGI (DU-145 prostate) was greater than 100 µM and the GI50 (MDA-MB-435) was 4.46 µM. It also gave a TGI (MDA-MB-435) greater than 100 µM, a GI50 (PC-3 prostate) of 1.49 µM and a TGI (PC-3 prostate) greater than 100 µM. The GI50 (COLO 205 colon) was 13.6 µM, the TGI (COLO 205 colon) was 95.7 µM and the GI50 (M14 melanoma) was 7.81 µM. It also gave a TGI (M14 melanoma) greater than 100 µM, a GI50 (T-47D breast) of 19.8 µM and a TGI (T-47D breast) greater than 100 µM. For the same compound, the GI50 (HCT-15 colon) was greater than 100 µM, the TGI (HCT-15 colon) was greater than 100 µM and the GI50 (HS 578T breast) was 16.7 µM. The TGI (HS 578T breast) was greater than 100 µM, the GI50 (SF-268 CNS) was 0.916 µM and the TGI (SF-268 CNS) was greater than 100 µM. It also gave a GI50 (SF-539 CNS) of 8.84 µM, a TGI (SF-539 CNS) of 81.2 µM and a GI50 (SK-MEL-5 melanoma) of 1.88 µM. For the same compound, the TGI (SK-MEL-5 melanoma) was 21.5 µM, the GI50 (EKVX NSCLC) was 10.9 µM and the TGI (EKVX NSCLC) was greater than 100 µM. The GI50 (786-0 renal) was 7.36 µM, the TGI (786-0 renal) was greater than 100 µM and the GI50 (U251 CNS) was 4.04 µM. For the same compound, the TGI (U251 CNS) was greater than 100 µM, the GI50 (HCT-116 colon) was 2.22 µM and the TGI (HCT-116 colon) was greater than 100 µM. For the same compound, the GI50 (MOLT-4 leukemia) was 9.26 µM, the TGI (MOLT-4 leukemia) was greater than 100 µM and the GI50 (A498 renal) was 75.5 µM. It also gave a TGI (A498 renal) greater than 100 µM, a GI50 (UACC-62 melanoma) of 4.05 µM and a TGI (UACC-62 melanoma) greater than 100 µM. The GI50 (SNB-75 CNS) was 8.62 µM, the TGI (SNB-75 CNS) was 51.4 µM and the GI50 (NCI-H226 lung) was 58.1 µM. For the same compound, the TGI (NCI-H226 lung) was greater than 100 µM, the GI50 (SNB-19 CNS) was 6.04 µM and the TGI (SNB-19 CNS) was greater than 100 µM. For the same compound, the GI50 (LOX IMVI melanoma) was 4.19 µM, the TGI (LOX IMVI melanoma) was greater than 100 µM and the GI50 (HL-60(TB) leukemia) was 0.775 µM. The TGI (HL-60(TB) leukemia) was greater than 100 µM, the GI50 (KM12 colon) was 6.29 µM and the TGI (KM12 colon) was greater than 100 µM. For the same compound, the GI50 (SW-620 colon) was 2.03 µM, the TGI (SW-620 colon) was greater than 100 µM and the GI50 (RPMI-8226 leukemia) was 60.7 µM. For the same compound, the TGI (RPMI-8226 leukemia) was greater than 100 µM, the GI50 (A549 NSCLC) was 2.83 µM and the TGI (A549 NSCLC) was greater than 100 µM. The GI50 (K-562 leukemia) was 0.677 µM, the TGI (K-562 leukemia) was greater than 100 µM and the GI50 (SF-295 CNS) was 26.5 µM. For the same compound, the TGI (SF-295 CNS) was greater than 100 µM, the GI50 (MCF7 breast) was 4.93 µM and the TGI (MCF7 breast) was greater than 100 µM. It also gave a GI50 (NCI-H460 lung) of 1.68 µM, a TGI (NCI-H460 lung) greater than 100 µM and a GI50 (MALME-3M melanoma) of 12 µM. For the same compound, the TGI (MALME-3M melanoma) was 81 µM, the GI50 (OVCAR-3 ovarian) was 8.6 µM and the TGI (OVCAR-3 ovarian) was greater than 100 µM. It also gave a GI50 (HOP-62 NSCLC) of 9.46 µM and a TGI (HOP-62 NSCLC) greater than 100 µM.
